# Results as given in patent publication US12059422B2 (MEI Pharma, Inc., priority 2011, dated 2024).
# Tests used:
# PI3K gamma = target: T1, PI3K gamma (Homo sapiens, UniProt P48736); assay: Luciferase-based luminescence assay (ADP Glo), PI3K gamma enzymatic activity; format: biochemical; conditions: inhibition of enzymatic activity, 25 μM ATP, read-out: IC50 p110γ
# T1 construct: purchased Invitrogen Corp., Carlsbad, CA, USA
# How it was run: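 Final enzyme 4.8 nM PI3K beta or 7.6 nM PI3K gamma, with 50 μM PIP2 and 25 μM ATP, 1 h in HEPES pH 7.5 buffer with MgCl2, EGTA, NaCl, CHAPS and DTT. ADP formed measured by ADP-Glo luminescence; IC50 from 10-point curve fits.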
# PI3Kγ = target: T2, PI3Kγ (Mus musculus, UniProt Q9JHG7); assay: ELISA assay for PI3Kγ: in-cell ELISA, phosphorylation of AKT (Ser473) in RAW 264.7 cells; format: cell-based; conditions: cellular, pAKT (Ser473), C5a stimulation, read-out: IC50 p110γ
# T2 construct: endogenous in cells; host or cells: RAW 264.7 (ATCC #TIB-71)
# Method: PI3K gamma (PI3Kγ) activity was determined by measuring the phosphorylation of AKT (Ser473) using an in-cell ELISA assay. RAW 264.7 (mouse macrophage) cells were obtained from ATCC (ATCC #TIB-71). Growth medium was DMEM (CellGro #CV-10-013-CV) supplemented with 10% fetal bovine serum, 100 IU/mL penicillin, 100 μg/mL streptomycin, and 1×MEM non-essential amino acids. Phosphate buffered saline (PBS) contained 2.7 M NaCl, 54 mM KCl, 86 mM […] (dibasic, anhydrous), and 28 mM […] (monobasic, anhydrous) at pH 7.2. Stimulation mixture (10×) was 500 ng/mL recombinant human complement component C5a (R&D systems #2037-C5-025) diluted in serum-free DMEM medium (CellGro #CV-10-013-CV). Compounds for testing were dissolved and serially diluted in 100% DMSO (total of 10 concentrations), then diluted in serum-free DMEM to 2× final assay concentration. Fixative solution (2×) was 8% formaldehyde (Amresco #M134) diluted in PBS. Permeabilization solution was PBS supplemented with 0.10% Triton X-100. Blocking buffer was obtained from LiCor (LiCor #927-40000). Wash buffer was PBS supplemented with 0.1% Tween-20. Primary antibody solution was rabbit anti-pAKT^S473 monoclonal antibody (Cell Signaling #4060) and mouse anti-total S6 (Santa Cruz #74459) diluted 1:500 and 1:2000, respectively, in the blocking buffer. Secondary antibody solution was IRDye 800CW-conjugated goat anti-rabbit IgG (LiCor #926-32211) and IRDye 680LT-conjugated goat anti-mouse IgG (LiCor #926-68020) diluted 1:1000 and 1:2000, respectively, in the blocking buffer.
# RAW 264.7 cells were subcultured in growth medium and seeded into flat, clear bottom, 96-well plates (Corning #3904) at 70000 cells/well, then incubated overnight in a 37° C., 5% CO2 incubator. Growth medium in plates was replaced with 100 μL/well serum-free DMEM and incubated overnight in a 37° C., 5% CO2 incubator. Fresh serum-free DMEM (50 μL/well) was added to plates. Compound treatment was performed by adding 50 μL/well of 2× compound mixture to plates and incubating for 2 hrs at 37° C., 5% CO2, after which 11 μL/well of 10× stimulation mixture was added and plates were incubated for 3 min at 37° C., 5% CO2. Fixation was performed by adding 110 μL/well of 2× fixative solution to plates and incubating for 20 min at room temperature. Permeabilization was performed by replacing fixation solution with 150 μL/well permeabilization solution and incubating for 10 min at room temperature. Permeabilization was repeated (for a total of 2 times). Permeabilization solution was replaced with 100 μL/well blocking buffer and plates were incubated for 1 hr at room temperature, after which 100 μL/well of primary antibody solution was added and plates were incubated overnight at 4° C. Plates were washed with wash buffer, after which 100 μL/well of secondary antibody solution was added to the plates and incubated in the dark for 1 hr at room temperature. Plates were washed with wash buffer, followed by awash with PBS. After completely removing PBS, plates were scanned on the Licor Odyssey Imager. Images were quantified using Licor Odyssey application software. IC50 values were determined by curve fitting using a Collaborative Drug Discovery database (www.collaborativedrug.com).
# T1 sequence (P48736 whole entry, species assumed): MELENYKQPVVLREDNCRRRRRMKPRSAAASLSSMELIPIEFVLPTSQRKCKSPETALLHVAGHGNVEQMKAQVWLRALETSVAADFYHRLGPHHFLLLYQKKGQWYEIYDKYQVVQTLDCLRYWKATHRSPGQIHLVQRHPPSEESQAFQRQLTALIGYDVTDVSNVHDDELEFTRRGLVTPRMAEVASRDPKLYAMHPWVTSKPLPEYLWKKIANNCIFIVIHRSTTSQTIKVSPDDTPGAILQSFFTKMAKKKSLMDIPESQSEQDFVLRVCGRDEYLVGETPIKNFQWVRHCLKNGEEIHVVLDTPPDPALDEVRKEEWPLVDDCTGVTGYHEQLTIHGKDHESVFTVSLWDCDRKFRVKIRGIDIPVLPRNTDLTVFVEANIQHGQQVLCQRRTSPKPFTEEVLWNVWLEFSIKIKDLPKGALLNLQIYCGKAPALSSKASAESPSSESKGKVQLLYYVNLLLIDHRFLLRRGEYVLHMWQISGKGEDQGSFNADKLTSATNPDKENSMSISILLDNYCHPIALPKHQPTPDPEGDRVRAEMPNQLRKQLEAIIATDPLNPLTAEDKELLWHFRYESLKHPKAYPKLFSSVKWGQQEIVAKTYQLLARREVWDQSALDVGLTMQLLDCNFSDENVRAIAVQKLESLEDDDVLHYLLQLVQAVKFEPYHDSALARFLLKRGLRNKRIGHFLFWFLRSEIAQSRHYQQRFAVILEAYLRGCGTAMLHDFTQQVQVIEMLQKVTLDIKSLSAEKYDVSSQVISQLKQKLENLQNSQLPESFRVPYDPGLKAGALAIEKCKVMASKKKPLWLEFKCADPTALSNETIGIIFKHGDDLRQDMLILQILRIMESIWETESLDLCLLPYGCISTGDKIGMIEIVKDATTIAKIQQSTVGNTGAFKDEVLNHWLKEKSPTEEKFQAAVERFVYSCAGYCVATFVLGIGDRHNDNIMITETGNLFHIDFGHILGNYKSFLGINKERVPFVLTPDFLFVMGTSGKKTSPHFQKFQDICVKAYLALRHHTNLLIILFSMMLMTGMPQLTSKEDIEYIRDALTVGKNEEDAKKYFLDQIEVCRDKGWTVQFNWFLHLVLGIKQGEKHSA
# T2 sequence (Q9JHG7 whole entry): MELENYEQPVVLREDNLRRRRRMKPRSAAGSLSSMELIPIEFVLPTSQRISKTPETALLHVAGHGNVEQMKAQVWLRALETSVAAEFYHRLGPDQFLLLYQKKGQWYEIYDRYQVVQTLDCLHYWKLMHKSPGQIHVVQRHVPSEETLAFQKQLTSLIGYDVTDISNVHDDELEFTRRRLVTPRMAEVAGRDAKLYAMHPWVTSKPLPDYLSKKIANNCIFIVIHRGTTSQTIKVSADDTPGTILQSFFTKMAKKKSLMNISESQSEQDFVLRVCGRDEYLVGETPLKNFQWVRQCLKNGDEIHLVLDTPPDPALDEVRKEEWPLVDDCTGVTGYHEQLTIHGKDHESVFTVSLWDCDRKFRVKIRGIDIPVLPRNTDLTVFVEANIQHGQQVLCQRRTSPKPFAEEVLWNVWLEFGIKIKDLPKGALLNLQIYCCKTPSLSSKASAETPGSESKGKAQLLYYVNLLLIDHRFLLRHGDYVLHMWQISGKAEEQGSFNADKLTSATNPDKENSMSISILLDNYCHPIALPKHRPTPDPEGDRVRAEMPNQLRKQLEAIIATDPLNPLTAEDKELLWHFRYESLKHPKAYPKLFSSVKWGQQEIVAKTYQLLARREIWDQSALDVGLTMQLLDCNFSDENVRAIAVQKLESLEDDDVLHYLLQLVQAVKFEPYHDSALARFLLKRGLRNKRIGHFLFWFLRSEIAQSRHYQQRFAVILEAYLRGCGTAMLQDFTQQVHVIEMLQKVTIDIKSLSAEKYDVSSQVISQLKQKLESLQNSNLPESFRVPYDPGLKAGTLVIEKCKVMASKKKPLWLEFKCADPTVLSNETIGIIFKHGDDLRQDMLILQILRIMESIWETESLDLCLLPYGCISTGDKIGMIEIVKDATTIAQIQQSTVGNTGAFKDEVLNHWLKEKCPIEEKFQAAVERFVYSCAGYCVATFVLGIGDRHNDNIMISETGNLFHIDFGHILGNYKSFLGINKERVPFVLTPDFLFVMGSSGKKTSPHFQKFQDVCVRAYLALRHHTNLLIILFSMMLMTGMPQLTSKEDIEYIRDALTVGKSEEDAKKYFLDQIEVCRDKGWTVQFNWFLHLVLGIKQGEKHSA
IC50 (PI3K gamma),IC50 (PI3Kγ),SMILES
> 500 nM,200 to 500 nM,"Cn1nccc1-c1ccccc1CC(C)(C)Nc1nc(N2CCOCC2)nc(-n2c(C(F)F)nc3ccccc32)n1 [Compound A46, 4-(2-(difluoromethyl)-1H-benzo[d]imidazol-1-yl)-N-(2-methyl-1-(2-(1-methyl-1H-pyrazol-5-yl)phenyl)propan-2-yl)-6-morpholino-1,3,5-triazin-2-amine]"
200 to 500 nM,200 to 500 nM,"Cc1cccc(CC(C)(C)Nc2nc(N3CCOCC3)nc(-n3c(C(F)F)nc4ccccc43)n2)c1 [Compound A49, 4-(2-(difluoromethyl)-1H-benzo[d]imidazol-1-yl)-N-(2-methyl-1-m-tolylpropan-2-yl)-6-morpholino-1,3,5-triazin-2-amine]"
> 500 nM,200 to 500 nM,"COc1cc(CC(C)(C)Nc2nc(N3CCOCC3)nc(-n3c(C(F)F)nc4ccccc43)n2)ccc1F [Compound A50, 4-(2-(difluoromethyl)-1H-benzo[d]imidazol-1-yl)-N-(1-(4-fluoro-3-methoxyphenyl)-2-methylpropan-2-yl)-6-morpholino-1,3,5-triazin-2-amine]"
200 to 500 nM,100 to 200 nM,"CC(C)(Cc1ccc(F)cc1F)Nc1nc(N2CCOCC2)nc(-n2c(C(F)F)nc3ccccc32)n1 [Compound A51, 4-(2-(difluoromethyl)-1H-benzo[d]imidazol-1-yl)-N-(1-(2,4-difluorophenyl)-2-methylpropan-2-yl)-6-morpholino-1,3,5-triazin-2-amine]"
≤ 100 nM,100 to 200 nM,"CC(C)(Cc1c(F)cccc1F)Nc1nc(N2CCOCC2)nc(-n2c(C(F)F)nc3ccccc32)n1 [Compound A52, 4-(2-(difluoromethyl)-1H-benzo[d]imidazol-1-yl)-N-(1-(2,6-difluorophenyl)-2-methylpropan-2-yl)-6-morpholino-1,3,5-triazin-2-amine]"
> 500 nM,> 500 nM,"CC(C)(Cc1ccccc1-c1ccccc1F)Nc1nc(N2CCOCC2)nc(-n2c(C(F)F)nc3ccccc32)n1 [Compound A59, 4-(2-(difluoromethyl)-1H-benzo[d]imidazol-1-yl)-N-(1-(2′-fluorobiphenyl-2-yl)-2-methylpropan-2-yl)-6-morpholino-1,3,5-triazin-2-amine]"
> 500 nM,> 500 nM,"Cc1ccccc1-c1ccccc1CC(C)(C)Nc1nc(N2CCOCC2)nc(-n2c(C(F)F)nc3ccccc32)n1 [Compound A60, 4-(2-(difluoromethyl)-1H-benzo[d]imidazol-1-yl)-N-(2-methyl-1-(2′-methylbiphenyl-2-yl)propan-2-yl)-6-morpholino-1,3,5-triazin-2-amine]"
> 500 nM,> 500 nM,"CC(C)(Cc1ccccc1-c1ccccc1Cl)Nc1nc(N2CCOCC2)nc(-n2c(C(F)F)nc3ccccc32)n1 [Compound A61, 4-(2-(difluoromethyl)-1H-benzo[d]imidazol-1-yl)-N-(1-(6′-chlorobiphenyl-2-yl)-2-methylpropan-2-yl)-6-morpholino-1,3,5-triazin-2-amine]"
> 500 nM,200 to 500 nM,CC(C)(Cc1ccccc1-c1cccnc1F)Nc1nc(N2CCOCC2)nc(-n2c(C(F)F)nc3ccccc32)n1 [Compound A62]
200 to 500 nM,> 500 nM,"CC(C)(Cc1ccccc1-c1cncnc1)Nc1nc(N2CCOCC2)nc(-n2c(C(F)F)nc3ccccc32)n1 [Compound A63, 4-(2-(difluoromethyl)-1H-benzo[d]imidazol-1-yl)-N-(2-methyl-1-(2-(pyrimidin-5-yl)phenyl)propan-2-yl)-6-morpholino-1,3,5-triazin-2-amine]"
> 500 nM,> 500 nM,"CN1CCN(c2cc(-c3ccccc3CC(C)(C)Nc3nc(N4CCOCC4)nc(-n4c(C(F)F)nc5ccccc54)n3)ccn2)CC1 [Compound A64, 4-(2-(difluoromethyl)-1H-benzo[d]imidazol-1-yl)-N-(2-methyl-1-(2-(2-(4-methylpiperazin-1-yl)pyridin-4-yl)phenyl)propan-2-yl)-6-morpholino-1,3,5-triazin-2-amine]"
100 to 200 nM,200 to 500 nM,"CC(C)(Cc1ccccc1-c1cccc(CN2CCOCC2)c1)Nc1nc(N2CCOCC2)nc(-n2c(C(F)F)nc3ccccc32)n1 [Compound A65, 4-(2-(difluoromethyl)-1H-benzo[d]imidazol-1-yl)-N-(2-methyl-1-(3′-(morpholinomethyl)biphenyl-2-yl)propan-2-yl)-6-morpholino-1,3,5-triazin-2-amine]"
> 500 nM,> 500 nM,"COc1cccc(-c2ccccc2CC(C)(C)Nc2nc(N3CCOCC3)nc(-n3c(C(F)F)nc4ccccc43)n2)c1 [Compound A66, 4-(2-(difluoromethyl)-1H-benzo[d]imidazol-1-yl)-N-(1-(3′-methoxybiphenyl-2-yl)-2-methylpropan-2-yl)-6-morpholino-1,3,5-triazin-2-amine]"
> 500 nM,> 500 nM,"COc1ccc(-c2ccccc2CC(C)(C)Nc2nc(N3CCOCC3)nc(-n3c(C(F)F)nc4ccccc43)n2)cc1 [Compound A67, 4-(2-(difluoromethyl)-1H-benzo[d]imidazol-1-yl)-N-(1-(4′-methoxybiphenyl-2-yl)-2-methylpropan-2-yl)-6-morpholino-1,3,5-triazin-2-amine]"
> 500 nM,200 to 500 nM,"CC(C)(Cc1ccccc1C1CCNCC1)Nc1nc(N2CCOCC2)nc(-n2c(C(F)F)nc3ccccc32)n1 [Compound A68, 4-(2-(difluoromethyl)-1H-benzo[d]imidazol-1-yl)-N-(2-methyl-1-(2-(piperidin-4-yl)phenyl)propan-2-yl)-6-morpholino-1,3,5-triazin-2-amine]"
> 500 nM,> 500 nM,"CCN1CCC(c2ccccc2CC(C)(C)Nc2nc(N3CCOCC3)nc(-n3c(C(F)F)nc4ccccc43)n2)CC1 [Compound A70, 4-(2-(difluoromethyl)-1H-benzo[d]imidazol-1-yl)-N-(1-(2-(1-ethylpiperidin-4-yl)phenyl)-2-methylpropan-2-yl)-6-morpholino-1,3,5-triazin-2-amine]"
> 500 nM,> 500 nM,"CC(C)N1CCC(c2ccccc2CC(C)(C)Nc2nc(N3CCOCC3)nc(-n3c(C(F)F)nc4ccccc43)n2)CC1 [Compound A71, 4-(2-(difluoromethyl)-1H-benzo[d]imidazol-1-yl)-N-(1-(2-(1-isopropylpiperidin-4-yl)phenyl)-2-methylpropan-2-yl)-6-morpholino-1,3,5-triazin-2-amine]"
≤ 100 nM,≤ 100 nM,"CC(=O)N1CCC(c2ccccc2CC(C)(C)Nc2nc(N3CCOCC3)nc(-n3c(C(F)F)nc4ccccc43)n2)CC1 [Compound A72, 4-(2-(difluoromethyl)-1H-benzo[d]imidazol-1-yl)-N-(2-methyl-1-(2-(1-acetylpiperidin-4-yl)phenyl)propan-2-yl)-6-morpholino-1,3,5-triazin-2-amine]"
100 to 200 nM,≤ 100 nM,"CC(C)(Cc1ccccc1C1CCN(S(C)(=O)=O)CC1)Nc1nc(N2CCOCC2)nc(-n2c(C(F)F)nc3ccccc32)n1 [Compound A73, 4-(2-(difluoromethyl)-1H-benzo[d]imidazol-1-yl)-N-(2-methyl-1-(2-(1-(methylsulfonyl)piperidin-4-yl)phenyl)propan-2-yl)-6-morpholino-1,3,5-triazin-2-amine]"
